Measurements: patent US5518988A, “Method of counteracting an ethylene response in plants” (North Carolina State University, priority 1994, dated 1996)

Tests used:
ethylene receptor [1] = assay: Diffusion of 3H 1-methylcyclopropene from carnation petals; type: binding, carnation (Dianthus caryophyllus)
Description: In order to label the ethylene receptor, 1-methylcyclopropene was labelled with tritium and the specific activity obtained was 60 mCi/mM. An eventual diffusion of the compound was studied on carnations. The flowers were treated with 1-methylcyclopropene, and with large amounts of ethylene. Control flowers were treated with 1-methylcyclopropene alone. The diffusion was followed for 7 days. […] When the experiment was made at 4° C., the diffusion was nonexistent.

carnations [2] = assay: Protection of in vivo cut carnations against exogenous ethylene (pre-treatment with compound); set-up: species or system carnation (Dianthus caryophyllus)
Description: The treatment of carnations with ethylene hastens the process of senescence, producing a petal in-rolling phenomena (Halevy and Mayak, 1981). Carnations at stage II, with low ethylene production and no visible signs of senescence (Woodson, 1987) were treated with 1-methylcyclopropeneat different concentration for 6 hours before adding […] of ethylene for 1 hour.
1-Methylcyclopropene was added for various times before the application of exogenous ethylene. […] Treatment with about 250 to 300 nl/l of 1-methylcyclopropene for five minutes was enough to protect the flowers. Treated for 24 hours, with 0.5 nl/l protected against 1 ml/l of ethylene.
Flowers were treated with 5 nl/l of product during 6 hours, then, stored for 10 days at room temperature. One ml/l of ethylene was then added over 18 hours. Ethylene had no effect on the treated carnations 10 days after the 1-methylcyclopropene treatment (data not shown). The binding of 1-methylcyclopropene on carnations seems to be irreversible.
Cut carnations at stage I and stage III were treated with 1-methylcyclopropene. For young carnations, the concentration of 1-methylcyclopropene giving a protective effect was about 1.25 and 2.5 nl/l. For these, the protection against ethylene was total. For old carnations, rates between 2.5 and 5 nl/l of 1-methylcyclopropene were sufficient to give a response, but total protection was not achieved. Total protection of older carnations was only achieved with 10 nl/l of 1-methylcyclopropene (data not shown).

carnations [3] = assay: Stopping the senescent process (petal in-rolling) of carnations due to exogenous and endogenous ethylene; type: in vivo, carnation (Dianthus caryophyllus)
Description: Flowers in a pre-senescent stage were treated with 5 nl/l of 1-methylcyclopropene and the senescent process was observed.
The carnations need to have an exogenous ethylene exposure at least for 6 hours to have a visible sign of senescence. Treatment with 3 nl/l of 1-methylcyclopropene is enough to stop that process. […] 1-methylcyclopropene seems to reduce and prevent the autocatalytic production of ethylene.
The ability of 1-methylcyclopropene to stop the senescence process was observed by adding ethylene over 6 hours. […] Thereafter 1-methylcyclopropene was added. The process of senescence was stopped by the binding of 1-methylcyclopropene on the ethylene receptor and giving a molecular response.

carnations [4] = assay: Ethylene production of carnation flowers; type: in vivo, carnation (Dianthus caryophyllus); details: compound applied at the ethylene climacteric; thereafter ethylene production measured
Description: Ethylene production was followed from the beginning of the ethylene climacteric production. […] 1- Methylcyclopropene was applied. Thereafter ethylene production was measured.

ethylene receptor [5] = assay: 14C-ethylene binding to carnation petals; set-up: species or system carnation (Dianthus caryophyllus); details: flowers treated with 5 nl/l, stored 4 days at room temperature at 4° C. before binding experiment (FIG. 4)
Description: Triplicate samples of 3 g cut carnations' petals were placed in a 2.51 desiccator containing ^14 C-ethylene-mercuric perchlorate complex (110 mCi/mM) in a 25 ml Erlenmeyer flask. Then, an excess of […] lithium chloride was added to the ethylene-mercuric perchlorate complex to release the gaseous ethylene. The mixture was stirred for 6 minutes. To determine the amount of binding, 3 ml of unlabelled ethylene was added in one desiccator. After 2 hours of ethylene exposure, the desiccators were opened and the samples were aerated for 4 minutes. Each sample was then placed in a 250 ml jar. 0.2 Ml of mercuric perchlorate on a 0.5 cm^2 piece of fiber-glass filter in a scintillation vial was then added. After 18 hours, the scintillation vials were removed, scintillation fluid added and the radioactivity counted for each sample.
To determine if the 1-methylcyclopropene acted on the ethylene receptor, flowers were treated with 5 nl/l of 1-methylcyclopropene and stored for 4 days at room temperature at 4° C. before the ethylene binding experiment. Carnation petals preincubated with 1-methylcyclopropene and control petals which had not been incubated with 1-methylcyclopropene were then incubated in the presence of ^14 C-ethylene. One sample representing the control was incubated with a saturating concentration of unlabelled ethylene in the presence of ^14 C-ethylene. […]

Bananas = assay: Banana ripening (chlorophyll disappearance); type: in vivo, bananas (Musa sapientum)
Description: Bananas were individually placed in a 3 l jar. 1-Methylcyclopropene was injected into the jar at a determined concentration. The plant material was then aerated and 1 ml/l of ethylene was added for 12 hours. Controls were held in jars without chemical treatment. Chlorophyll measurement was made as previously described in Sisler and Wood, 1988). The experiment was done 7 days after 1-methylcyclopropene treatment.

tomatoes = assay: Tomato ripening after ethylene treatment; type: in vivo, tomatoes (Lycopersicon esculentum); details: applied for 12 hours before the ethylene treatment
Description: Tomato seeds were washed with NaOCl (10%) and rinsed with water. The seeds were placed on wetted filter paper with 10 mM sodium phosphate buffer at pH 5.8. The germination was done in the dark. When the seedlings were about 1 mm height, 30 seeds by sample were placed on wet filter paper in a 0.5 l jar. 1-Methylcyclopropene was added over 24 hours before adding 10 μl/l ethylene for 5 days.
When 1-methylcyclopropene was applied for 12 hours before the ethylene treatment, only 10 nl/l of compound was enough to preserve tomatoes.

SMILES	diffusion of the labelled compound from carnations (ethylene receptor [1]; experiment made at 4° C.)	diffusion of the labelled compound from carnations (ethylene receptor [1]; followed for 7 days, flowers without ethylene treatment)	effect of ethylene on treated carnations 10 days after treatment (carnations [2]; 5 nl/l for 6 hours, stored 10 days at room temperature, then 1 ml/l ethylene over 18 hours)	minimal concentration preventing the ethylene process, compared with that at the other ethylene levels (carnations [2]; flowers treated with 1 ml/l of ethylene)	concentration to protect the flower against ethylene action, compared with STS, DACP or NBD (carnations [2]; in vivo carnations)	concentration achieving total protection (carnations [2]; old cut carnations (stage III)) [nl/l]	minimal concentration preventing the ethylene process (flowers looked like control without ethylene) (carnations [2]; stage II carnations, 6 hours treatment before 10 or 1000 ml/l ethylene for 1 hour, after 4 days) [nl/l]	concentration needed to protect the flowers against exogenous ethylene (carnations [2]; treated for 24 hours, against 1 ml/l of ethylene) [nl/l]	extent of protection against ethylene (carnations [2]; young cut carnations (stage I), about 1.25 and 2.5 nl/l)	senescent process of flowers treated in a pre-senescent stage (carnations [3]; 5 nl/l, observed 15 days later, untreated control in-rolled one day later)	concentration enough to stop the senescence process due to exogenous ethylene exposure (carnations [3]; after exogenous ethylene exposure of at least 6 hours) [nl/l]	process of senescence after in-rolling had begun (carnations [3]; ethylene over 6 hours, in-rolling begun, thereafter compound added)	petal in-rolling of carnations treated with ethylene and then compound (carnations [3]; ethylene, then 1-methylcyclopropene)	ethylene production, control versus treated flowers (FIG. 3) (carnations [4])	specific 14C-ethylene binding (ethylene receptor [5])	Ki (chlorophyll measurement) (Bananas; 1 ml/l ethylene for 12 hours, measured 7 days after treatment) [nl/l]	Ki for chlorophyll disappearance (Bananas; experiments done in the dark) [ul/l]	Ki for chlorophyll disappearance (Bananas; experiments done in the light) [ul/l]	time for which ripening was prevented (Bananas; treated bananas, fruits turned brown after this period)	concentration enough to preserve tomatoes (tomatoes) [nl/l]
CC1=CC1 [^3 H 1-methylcyclopropene]	nonexistent	a little diffusion	–	–	–	–	–	–	–	–	–	–	–	–	–	–	–	–	–	–
CC1=CC1 [1-methylcyclopropene]	–	–	no effect	the same	much lower	10	2.5	0.5	total	did not show a senescent process	3	stopped	no visible sign of the phenomenon	considerably lower	totally inhibited	0.4	40	1.2	about 15 days	10
